{"source": "patent US9598423B2", "about": "(BRISTOL-MYERS SQUIBB COMPANY, priority 2013, dated 2017)", "key": {"[1]": {"target": "CK1ε (Homo sapiens (Human), UniProt P49674)", "sequence (P49674 whole entry)": "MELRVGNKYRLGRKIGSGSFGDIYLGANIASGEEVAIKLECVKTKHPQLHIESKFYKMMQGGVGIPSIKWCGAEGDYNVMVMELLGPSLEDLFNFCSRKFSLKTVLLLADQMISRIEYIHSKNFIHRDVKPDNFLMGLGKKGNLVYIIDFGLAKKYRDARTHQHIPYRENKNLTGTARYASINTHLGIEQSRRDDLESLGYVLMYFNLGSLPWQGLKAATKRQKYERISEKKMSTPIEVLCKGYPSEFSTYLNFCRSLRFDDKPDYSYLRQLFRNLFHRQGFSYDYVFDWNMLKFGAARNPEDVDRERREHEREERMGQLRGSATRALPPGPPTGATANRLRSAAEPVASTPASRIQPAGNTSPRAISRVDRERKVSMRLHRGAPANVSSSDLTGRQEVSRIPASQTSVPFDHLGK", "experiment": "CK1ε kinase assay (Caliper LABCHIP electrophoretic separation of fluoresceinated peptide substrate and product)", "type": "biochemical", "description": "(§1) CK1ε and CK1δ Kinase Assays\n(§2) The kinase assay was performed in V-bottom 384-well plates. […] The reaction was incubated at room temperature for 22 hours and terminated by adding 45 μl of 35 mM EDTA to each sample. The reaction mixture was analyzed on the Caliper LABCHIP®3000 (Caliper, Hopkinton, Mass.) by electrophoretic separation of the unphosphorylated substrate and phosphorylated product. […] Compounds were dissolved at 10 mM in dimethylsulfoxide (DMSO) and evaluated at eleven concentrations. IC50 values were derived by non-linear regression analysis."}, "[2]": {"target": "CK1δ (Homo sapiens (Human), UniProt P48730)", "sequence (P48730 whole entry)": "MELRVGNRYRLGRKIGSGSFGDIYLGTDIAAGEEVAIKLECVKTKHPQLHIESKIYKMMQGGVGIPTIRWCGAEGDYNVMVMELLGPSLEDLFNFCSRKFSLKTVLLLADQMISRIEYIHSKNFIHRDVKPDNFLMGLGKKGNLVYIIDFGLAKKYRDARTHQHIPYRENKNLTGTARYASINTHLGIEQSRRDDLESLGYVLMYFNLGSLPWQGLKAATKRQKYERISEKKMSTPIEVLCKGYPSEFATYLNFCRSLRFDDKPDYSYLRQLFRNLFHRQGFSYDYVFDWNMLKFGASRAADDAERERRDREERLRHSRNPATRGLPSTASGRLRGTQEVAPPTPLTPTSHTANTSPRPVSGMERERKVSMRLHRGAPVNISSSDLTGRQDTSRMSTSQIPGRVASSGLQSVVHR", "experiment": "CK1δ kinase assay (Caliper LABCHIP electrophoretic separation of fluoresceinated peptide substrate and product)", "type": "biochemical", "settings": "200 pM CK1δ, 50 μM ATP, 1.5 μM peptide substrate, 22 hours at room temperature; read-out: CK1δ (IC50)", "description": "as §1, §2"}, "[3]": {"settings": "200 pM CK1ε, 50 μM ATP, 1.5 μM peptide substrate, 22 hours at room temperature, read-out: CK1ε (IC50)"}}, "note": "Where two headings read alike, the source gives them in different places."}
{"smiles": "N#Cc1ccc(NC(=O)N2Cc3c(C(N)=O)c(-c4ccc(F)c(Cl)c4)nn3C(CF)C2)cc1Cl", "note": "(single isomer, unassigned) [Compound A15, N^5-(3-Chloro-4-cyanophenyl)-2-(3-chloro-4-fluorophenyl)-7-(fluoromethyl)-6,7-dihydropyrazolo[1,5-a]pyrazine-3,5(4H)-dicarboxamide]", "values": [{"measurement": "IC50", "setting": "[1]; [3]", "result": "0.01 to 10", "unit": "nM"}]}
{"smiles": "CCC1CN(C(=O)Nc2ccc(C#N)cc2)Cc2c(C(N)=O)c(-c3ccc(F)c(Cl)c3)nn21", "note": "(single isomer, unassigned) [Compound A68, 2-(3-Chloro-4-fluorophenyl)-N^5-(4-cyanophenyl)-7-ethyl-6,7-dihydropyrazolo[1,5-a]pyrazine-3,5(4H)-dicarboxamide]", "values": [{"measurement": "IC50", "setting": "[1]; CK1ε (IC50, nM)", "result": "0.01 to 10", "unit": "nM"}]}
{"smiles": "CCC1CN(C(=O)Nc2ccc(C#N)cc2)Cc2c(C(N)=O)c(-c3ccc(F)c(Cl)c3)nn21", "note": "(single isomer, unassigned) [Compound A69, 2-(3-Chloro-4-fluorophenyl)-N^5-(4-cyanophenyl)-7-ethyl-6,7-dihydropyrazolo[1,5-a]pyrazine-3,5(4H)-dicarboxamide]", "values": [{"measurement": "IC50", "setting": "[1]; read-out: CK1ε (IC50)", "result": "0.01 to 10", "unit": "nM"}]}
{"smiles": "NC(=O)c1c(-c2ccc(F)cc2)nn2c1CN(C(=O)NC1CCCCC1)CC2", "note": "[Compound 3, N^5-Cyclohexyl-2-(4-fluorophenyl)-6,7-dihydropyrazolo[1,5-a]pyrazine-3,5(4H)-dicarboxamide]", "values": [{"measurement": "IC50", "setting": "[2]", "result": "0.01 to 10", "unit": "nM"}]}
{"smiles": "CC(C)(NC(=O)N1CCn2nc(-c3cccc(F)c3)c(C(N)=O)c2C1)c1ccc(F)cc1", "note": "[Compound 17, 2-(3-Fluorophenyl)-N^5-(2-(4-fluorophenyl)propan-2-yl)-6,7-dihydropyrazolo[1,5-a]pyrazine-3,5(4H)-dicarboxamide]", "values": [{"measurement": "IC50", "setting": "[2]", "result": "0.01 to 10", "unit": "nM"}]}
{"smiles": "NC(=O)c1c(-c2cccc(F)c2)nn2c1CN(C(=O)NC13C[C@@H]4CC1C[C@@H](C4)C3)CC2", "note": "[Compound 23, 2-(3-Fluorophenyl)-N^5-((2R,5S)-octahydro-2,5-methanopentalen-6a-yl)-6,7-dihydropyrazolo[1,5-a]pyrazine-3,5(4H)-dicarboxamide]", "values": [{"measurement": "IC50", "setting": "[1]; [3]", "result": "0.01 to 10", "unit": "nM"}]}
{"smiles": "CC(C)(NC(=O)N1CCn2nc(-c3cccc(F)c3)c(C(N)=O)c2C1)c1ccccc1", "note": "[Compound 25, 2-(3-Fluorophenyl)-N^5-(2-phenylpropan-2-yl)-6,7-dihydropyrazolo[1,5-a]pyrazine-3,5(4H)-dicarboxamide]", "values": [{"measurement": "IC50", "setting": "[2]", "result": "0.01 to 10", "unit": "nM"}]}
{"smiles": "NC(=O)c1c(-c2cccc(F)c2)nn2c1CN(C(=O)Nc1ccc(F)c(F)c1)CC2", "note": "[Compound 29, N^5-(3,4-Difluorophenyl)-2-(3-fluorophenyl)-6,7-dihydropyrazolo[1,5-a]pyrazine-3,5(4H)-dicarboxamide]", "values": [{"measurement": "IC50", "setting": "[2]", "result": "0.01 to 10", "unit": "nM"}]}
{"smiles": "NC(=O)c1c(-c2cccc(F)c2)nn2c1CN(C(=O)Nc1cc(Cl)ccc1F)CC2", "note": "[Compound 33, N^5-(5-Chloro-2-fluorophenyl)-2-(3-fluorophenyl)-6,7-dihydropyrazolo[1,5-a]pyrazine-3,5(4H)-dicarboxamide]", "values": [{"measurement": "IC50", "setting": "[2]", "result": "0.01 to 10", "unit": "nM"}]}
{"smiles": "COc1ccc(NC(=O)N2CCn3nc(-c4cccc(F)c4)c(C(N)=O)c3C2)cc1OC", "note": "[Compound 66, N^5-(3,4-Dimethoxyphenyl)-2-(3-fluorophenyl)-6,7-dihydropyrazolo[1,5-a]pyrazine-3,5(4H)-dicarboxamide]", "values": [{"measurement": "IC50", "setting": "[2]", "result": "0.01 to 10", "unit": "nM"}]}
{"smiles": "NC(=O)c1c(-c2cccc(F)c2)nn2c1CN(C(=O)Nc1cccnc1)CC2", "note": "[Compound 68, 2-(3-Fluorophenyl)-N^5-(pyridin-3-yl)-6,7-dihydropyrazolo[1,5-a]pyrazine-3,5(4H)-dicarboxamide]", "values": [{"measurement": "IC50", "setting": "[2]", "result": "0.01 to 10", "unit": "nM"}]}
{"smiles": "Cc1cc(C)cc(-c2nn3c(c2C(N)=O)CN(C(=O)NC(C)(C)C)CC3)c1", "note": "[Compound 128, N^5-(tert-Butyl)-2-(3,5-dimethylphenyl)-6,7-dihydropyrazolo[1,5-a]pyrazine-3,5(4H)-dicarboxamide]", "values": [{"measurement": "IC50", "setting": "[1]; [3]", "result": "0.01 to 10", "unit": "nM"}]}
{"smiles": "NC(=O)c1c(-c2ccc(F)c(Cl)c2)nn2c1CN(C(=O)Nc1ccc3ccncc3c1)CC2", "note": "[Compound 196, 2-(3-Chloro-4-fluorophenyl)-N^5-(isoquinolin-7-yl)-6,7-dihydropyrazolo[1,5-a] pyrazine-3,5(4H)-dicarboxamide]", "values": [{"measurement": "IC50", "setting": "[1]; [3]", "result": "0.01 to 10", "unit": "nM"}]}
{"smiles": "Cc1cc(-c2nn3c(c2C(N)=O)CN(C(=O)Nc2ccc(C#N)c(C)c2)CC3)ccc1F", "note": "[Compound 239, N^5-(4-Cyano-3-methylphenyl)-2-(4-fluoro-3-methylphenyl)-6,7-dihydropyrazolo[1,5-a]pyrazine-3,5(4H)-dicarboxamide]", "values": [{"measurement": "IC50", "setting": "[1]; [3]", "result": "0.01 to 10", "unit": "nM"}]}
{"smiles": "N#Cc1ccc(NC(=O)N2CCn3nc(-c4ccc(C5CC5)c(Cl)c4)c(C(N)=O)c3C2)cc1", "note": "[Compound 258, 2-(3-Chloro-4-cyclopropylphenyl)-N^5-(4-cyanophenyl)-6,7-dihydropyrazolo[1,5-a]pyrazine-3,5(4H)-dicarboxamide]", "values": [{"measurement": "IC50", "setting": "[1]; [3]", "result": "0.01 to 10", "unit": "nM"}]}
{"smiles": "CN(C)c1cc(Cl)cc(-c2nn3c(c2C(N)=O)CN(C(=O)Nc2ccc(C#N)cc2)CC3)c1", "note": "[Compound 265, 2-(3-Chloro-5-(dimethylamino)phenyl)-N^5-(4-cyanophenyl)-6,7-dihydropyrazolo[1,5-a]pyrazine-3,5(4H)-dicarboxamide]", "values": [{"measurement": "IC50", "setting": "[1]; [3]", "result": "0.01 to 10", "unit": "nM"}]}
{"smiles": "Cc1cc(NC(=O)N2CCn3nc(-c4cc(Cl)cc(N(C)C)c4)c(C(N)=O)c3C2)ccc1C#N", "note": "[Compound 267, 2-(3-Chloro-5-(dimethylamino)phenyl)-N^5-(4-cyano-3-methylphenyl)-6,7-dihydropyrazolo[1,5-a] pyrazine-3,5(4H)-dicarboxamide]", "values": [{"measurement": "IC50", "setting": "[1]; [3]", "result": "0.01 to 10", "unit": "nM"}]}
{"smiles": "CN(C)c1cc(Cl)cc(-c2nn3c(c2C(N)=O)CN(C(=O)Nc2ccc(C#N)c(Cl)c2)CC3)c1", "note": "[Compound 268, N^5-(3-Chloro-4-cyanophenyl)-2-(3-chloro-5-(dimethyl-amino)phenyl)-6,7-dihydropyrazolo[1,5-a] pyrazine-3,5(4H)-dicarboxamide]", "values": [{"measurement": "IC50", "setting": "[1]; [3]", "result": "0.01 to 10", "unit": "nM"}]}
{"smiles": "CN(C)c1cc(Cl)cc(-c2nn3c(c2C(N)=O)CN(C(=O)Nc2ccc(C#N)c(F)c2)CC3)c1", "note": "[Compound 269, 2-(3-Chloro-5-(dimethylamino)phenyl)-N^5-(4-cyano-3-fluorophenyl)-6,7-dihydropyrazolo[1,5-a] pyrazine-3,5(4H)-dicarboxamide]", "values": [{"measurement": "IC50", "setting": "[1]; [3]", "result": "0.01 to 10", "unit": "nM"}]}
{"smiles": "N#Cc1ccc(NC(=O)N2CCn3nc(-c4cnc(F)c(Cl)c4)c(C(N)=O)c3C2)cc1F", "note": "[Compound 295, 2-(5-Chloro-6-fluoropyridin-3-yl)-N^5-(4-cyano-3-fluorophenyl)-6,7-dihydropyrazolo[1,5-a] pyrazine-3,5(4H)-dicarboxamide]", "values": [{"measurement": "IC50", "setting": "[1]; [3]", "result": "0.01 to 10", "unit": "nM"}]}
{"smiles": "N#Cc1ccc(NC(=O)N2CCn3nc(-c4cnc(F)c(Cl)c4)c(C(N)=O)c3C2)cc1Cl", "note": "[Compound 296, N^5-(3-Chloro-4-cyanophenyl)-2-(5-chloro-6-fluoropyridin-3-yl)-6,7-dihydropyrazolo[1,5-a] pyrazine-3,5(4H)-dicarboxamide]", "values": [{"measurement": "IC50", "setting": "[1]; read-out: CK1ε (IC50)", "result": "0.01 to 10", "unit": "nM"}]}
{"smiles": "N#Cc1ccc(NC(=O)N2CCn3nc(-c4cc(Cl)c5cncn5c4)c(C(N)=O)c3C2)cc1", "note": "[Compound 308, 2-(8-Chloroimidazo[1,5-a]pyridin-6-yl)-N-(4-cyanophenyl)-6,7-dihydropyrazolo[1,5-a]pyrazine-3,5(4H)-dicarboxamide]", "values": [{"measurement": "IC50", "setting": "[1]; [3]", "result": "0.01 to 10", "unit": "nM"}]}
{"smiles": "N#Cc1ccc(NC(=O)N2CCn3nc(-c4cc(Cl)c5ocnc5c4)c(C(N)=O)c3C2)cc1", "note": "[Compound 309, 2-(7-Chlorobenzo[d]oxazol-5-yl)-N^5-(4-cyanophenyl)-6,7-dihydropyrazolo[1,5-a]pyrazine-3,5(4H)-dicarboxamide]", "values": [{"measurement": "IC50", "setting": "[1]; [3]", "result": "0.01 to 10", "unit": "nM"}]}
{"smiles": "N#Cc1ccc(NC(=O)N2CCn3nc(-c4cc(Cl)c5[nH]ncc5c4)c(C(N)=O)c3C2)cc1", "note": "[Compound 315, 2-(7-Chloro-1H-indazol-5-yl)-N^5-(4-cyanophenyl)-6,7-dihydropyrazolo[1,5-a]pyrazine-3,5(4H)-dicarboxamide]", "values": [{"measurement": "IC50", "setting": "[1]; [3]", "result": "0.01 to 10", "unit": "nM"}]}
{"smiles": "N#Cc1ccc(NC(=O)N2Cc3c(C(N)=O)c(-c4ccc(F)c(Cl)c4)nn3[C@H](CF)C2)cc1F", "note": "[Compound A16, (S)-2-(3-Chloro-4-fluorophenyl)-N^5-(4-cyano-3-fluorophenyl)-7-(fluoromethyl)-6,7-dihydropyrazolo[1,5-a]pyrazine-3,5(4H)-dicarboxamide]", "values": [{"measurement": "IC50", "setting": "[1]; [3]", "result": "0.01 to 10", "unit": "nM"}]}
{"smiles": "N#Cc1ccc(NC(=O)N2Cc3c(C(N)=O)c(-c4ccc(F)c(Cl)c4)nn3[C@@H](CF)C2)cc1F", "note": "[Compound A17, (R)-2-(3-Chloro-4-fluorophenyl)-N^5-(4-cyano-3-fluorophenyl)-7-(fluoromethyl)-6,7-dihydropyrazolo[1,5-a]pyrazine-3,5(4H)-dicarboxamide]", "values": [{"measurement": "IC50", "setting": "[1]; [3]", "result": "0.01 to 10", "unit": "nM"}]}
{"smiles": "N#Cc1ccc(NC(=O)N2Cc3c(C(N)=O)c(-c4ccc(F)c(Cl)c4)nn3[C@H](C(F)F)C2)cc1", "note": "[Compound A20, (S)-2-(3-Chloro-4-fluorophenyl)-N^5-(4-cyanophenyl)-7-(difluoromethyl)-6,7-dihydropyrazolo[1,5-a]pyrazine-3,5(4H)-dicarboxamide]", "values": [{"measurement": "IC50", "setting": "[1]; [3]", "result": "0.01 to 10", "unit": "nM"}]}
{"smiles": "N#Cc1ccc(NC(=O)N2Cc3c(C(N)=O)c(-c4ccc(F)c(Cl)c4)nn3[C@@H](C(F)F)C2)cc1", "note": "[Compound A21, (R)-2-(3-Chloro-4-fluorophenyl)-N^5-(4-cyanophenyl)-7-(difluoromethyl)-6,7-dihydropyrazolo[1,5-a]pyrazine-3,5(4H)-dicarboxamide]", "values": [{"measurement": "IC50", "setting": "[1]; [3]", "result": "0.01 to 10", "unit": "nM"}]}
{"smiles": "CC1CN(C(N)=O)Cc2c(C(=O)NC(C)(C)C)c(-c3ccc(Cl)c(Cl)c3)nn21", "note": "(stereo not drawn) [Compound A33, N-(tert-Butyl)-2-(3,4-dichlorophenyl)-7-methyl-6,7-dihydropyrazolo[1,5-a]pyrazine-3,5(4H)-dicarboxamide]", "values": [{"measurement": "IC50", "setting": "[1]; [3]", "result": "0.01 to 10", "unit": "nM"}]}
{"smiles": "N#CC1(c2ccc(NC(=O)N3CCn4nc(-c5ccc(F)c(Cl)c5)c(C(N)=O)c4C3)cc2)CC1", "note": "[Compound A54, 2-(3-Chloro-4-fluorophenyl)-N^5-(4-(1-cyanocyclopropyl)phenyl)-6,7-dihydropyrazolo[1,5-a]pyrazine-3,5(4H)-dicarboxamide]", "values": [{"measurement": "IC50", "setting": "[1]; [3]", "result": "0.01 to 10", "unit": "nM"}]}
